Laboratory results: EP1736154A1 (priority 2005, dated 2006)
Starred links: 1 amine or outer side, 2 acyl side, 3 side chain; linkers in the order of their positions; H or OH if unused. Positions of bridges follow the written chain, without caps; N, C: chain ends. Non-standard residues stand in square brackets, D forms with d. Residues, ends and D or L forms follow the SMILES beside them. Adda = CO[C@@H](Cc1ccccc1)[C@@H](C)/C=C(C)/C=C/[C@H](N[*:1])[C@H](C)C(=O)[*:2]; dAsp(3S-Me) = C[C@H](C(=O)[*:3])[C@@H](N[*:1])C(=O)[*:2]; d(γGlu) = O=C(O)[C@@H](CCC(=O)[*:2])N[*:1]; NMeDha = C=C(NC)C(=O)O

How the values were obtained:
SMN2 minigene, exon 7 = assay type: cell-based
tau exon 10 minigene = assay type: cell-based, human
SMN protein = SMN protein expression in SMA patient fibroblasts (Western blot with anti-SMN antibody)

SMILES: COC[C@@H]([C@H](O)[C@H](O)C(=O)NCC[C@H](C)c1nc(/C=C/C[C@@H]2O[C@]3(C[C@@H](O)[C@@H]2C)O[C@H]([C@H](C[C@H](O)[C@H](C)[C@H](O)[C@H](C)/C=C(C)/C(C)=C/C=C/C(C)=C\C#N)OC)[C@H](OP(=O)(O)O)C3(C)C)co1)N(C)C [Calyculin A]
- exon 7 inclusion of SMN2 MG (SMN2 minigene, exon 7): promote the exon 7 inclusion

SMILES: C[C@@]12C(=O)OC(=O)[C@]1(C)[C@H]1CC[C@@H]2O1 [Cantharidin]
- exon 7 inclusion of SMN2 MG (SMN2 minigene, exon 7): promote the exon 7 inclusion

SMILES: CN(N=O)c1cc(O)ccc1O [Dephostatin]
- exon 7 inclusion of SMN2 MG (SMN2 minigene, exon 7): promote the exon 7 inclusion

SMILES: C=C1C(=O)N[C@H](C)C(=O)N[C@@H](CC(C)C)C(=O)N[C@@H](C(=O)O)[C@H](C)C(=O)N[C@@H](CCCNC(=N)N)C(=O)N[C@@H](/C=C/C(C)=C/[C@H](C)[C@H](Cc2ccccc2)OC)[C@H](C)C(=O)N[C@@H](C(=O)O)CCC(=O)N1C [Microcystin ―LR, Microcystin-LR] (R[Adda][d(γGlu)][NMeDha][dA]L[dAsp(3S-Me)]-OH; lactam N-7)
- exon 7 inclusion of SMN2 MG (SMN2 minigene, exon 7): promote the exon 7 inclusion

SMILES: CO[C@H]([C@H](O)CC(=O)[C@@H](C)[C@@H](O)CC[C@@H](C)[C@@H]1O[C@]2(CC[C@@H](C)[C@H](CC[C@H](C)C(C)=O)O2)CC[C@@H]1C)[C@H](OC(=O)C[C@@H](O)C1=C(C)C(=O)OC1=O)C(C)C [Tautomycin]
- inclusion of tra2-beta1 dependent enhancers, tau exon 10 minigene (tau exon 10 minigene): promotes inclusion of tra2-beta1 dependent enhancers
- SMN Protein formation in human fibroblasts (SMN protein): promotes SMN Protein formation
- inclusion of tra2-beta1 dependent enhancers, SMN2-minigene (SMN2 minigene, exon 7): promotes inclusion of tra2-beta1 dependent enhancers
- tra2-betal-dependent splicing enhancers (SMN2 MG splicing pattern) (SMN2 minigene, exon 7): can be manipulated
